The source of these data is ChEMBL document CHEMBL5344426, “Imidazolone as an Amide Bioisostere in the Development of β-1,3-N-Acetylglucosaminyltransferase 2 (B3GNT2) Inhibitors” (J Med Chem, 2023).

Each structure is given as a SMILES string. In brackets after ≈: the same amount, converted by molar mass. Where only a bound is given, the exact number is not on record here.

Data set [1] can be described thus: Oral bioavailability in mouse at 5 mg/kg. It is filed as ADME, organism-based. Conditions: in vivo.
Data set [2] can be described thus: Solubility of compound in PBS incubated for 48 to 72 hrs by LC-MS analysis. It counts as physicochemical. The conditions noted are these: time 48-72 hrs.
Data set [3] in a line: Half life in mouse at 5 mg/kg, po. It counts as ADME, organism-based. The conditions noted are these: in vivo; for t1/2: po, 5 mg/kg.
Data set [4] can be described thus: Solubility of compound in HCL incubated for 48 to 72 hrs by LC-MS analysis. It is filed as physicochemical. Conditions: time 48-72 hrs.
The nature of data set [5]: Microsomal stability in human liver microsome assessed as intrinsic clearance at 1 uM incubated for 20 mins in presence of NADPH by LC-MS/MS analysis. The conditions noted are these: liver microsomes, read-out: CLH. It is filed as ADME. In general terms: Microsomes from liver hold many membrane-bound enzymes, among them those of drug oxidation.
For another data set, the system named is Jurkat. The data set is described as follows: Antiproliferative activity against human Jurkat cells assessed as inhibition of cell growth incubated for 3 days by SYTOX blue staining based flow cytometry analysis. Conditions: 72 h. It counts as functional.
The target in data set [6] is N-acetyllactosaminide beta-1,3-N-acetylglucosaminyltransferase 4 (Homo sapiens, UniProt Q9C0J1). Kind of data set: Inhibition of B3GNT4 (unknown origin) using Beta-lactose and UDP-GlcNAc as substrate incubated for 1.5 to 2 hrs by UDP-Glo based analysis.
Chain of N-acetyllactosaminide beta-1,3-N-acetylglucosaminyltransferase 4 (Q9C0J1 whole entry): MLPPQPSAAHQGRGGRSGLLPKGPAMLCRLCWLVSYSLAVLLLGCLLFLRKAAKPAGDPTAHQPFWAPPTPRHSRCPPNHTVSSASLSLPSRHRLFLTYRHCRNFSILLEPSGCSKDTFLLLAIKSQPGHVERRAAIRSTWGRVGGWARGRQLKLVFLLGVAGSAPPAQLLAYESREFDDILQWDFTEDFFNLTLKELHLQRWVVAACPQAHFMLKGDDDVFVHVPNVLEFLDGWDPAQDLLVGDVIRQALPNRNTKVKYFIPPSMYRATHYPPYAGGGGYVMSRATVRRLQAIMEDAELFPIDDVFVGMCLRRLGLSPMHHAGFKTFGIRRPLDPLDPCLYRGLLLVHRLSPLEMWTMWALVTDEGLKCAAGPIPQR
The nature of data set [7]: Clearance in mouse at 5 mg/kg, po. Conditions: in vivo; for CL: po, 5 mg/kg. It counts as ADME, organism-based.
Data set [8] in a line: Volume of distribution at steady state in mouse at 5 mg/kg, po. It is filed as ADME, organism-based. Conditions: in vivo.
Data set [9] is described as follows: Microsomal stability in rat liver microsome assessed as intrinsic clearance at 1 uM incubated for 20 mins in presence of NADPH by LC-MS/MS analysis. It counts as ADME. The conditions noted are these: liver microsomes, read-out: CLH.
A short description of data set [10]: Permeability of compound across apical to basolateral in MDCK-II cells incubated for 2 hrs by LC-MS/MS analysis. It counts as ADME, cell-based, Canis lupus familiaris. The conditions noted are these: dog, read-out: permeability.
Data set [11] deals with T1, N-acetyllactosaminide beta-1,3-N-acetylglucosaminyltransferase 2 (Homo sapiens, UniProt Q9NY97).
T1 sequence (Q9NY97 whole entry): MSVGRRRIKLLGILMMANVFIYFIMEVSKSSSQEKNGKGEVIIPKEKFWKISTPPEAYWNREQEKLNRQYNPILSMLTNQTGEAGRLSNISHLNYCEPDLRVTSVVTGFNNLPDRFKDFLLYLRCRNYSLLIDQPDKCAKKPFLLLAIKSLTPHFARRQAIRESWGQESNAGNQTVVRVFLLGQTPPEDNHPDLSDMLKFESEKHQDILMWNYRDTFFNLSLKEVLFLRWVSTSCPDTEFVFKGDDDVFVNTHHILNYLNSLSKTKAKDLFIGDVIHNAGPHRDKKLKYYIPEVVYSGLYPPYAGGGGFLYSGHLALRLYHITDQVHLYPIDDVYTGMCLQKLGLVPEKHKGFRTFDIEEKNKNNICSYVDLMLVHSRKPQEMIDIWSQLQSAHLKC
The data set is described as follows: Inhibition of B3GNT2 (unknown origin) using N-acetyl-lactosamine and UDP-GlcNAc as substrate incubated for 1.5 to 2 hrs by UDP-Glo based analysis. Conditions: read-out: IC50.

Data set [12] can be described thus: Solubility of compound in FeSSIF incubated for 48 to 72 hrs by LC-MS analysis. It counts as physicochemical. The conditions noted are these: time 48-72 hrs.
A short description of data set [13]: Microsomal stability in mouse liver microsome assessed as intrinsic clearance at 1 uM incubated for 20 mins in presence of NADPH by LC-MS/MS analysis. It counts as ADME. The conditions noted are these: liver microsomes, read-out: CLH.

`C[C@@H](n1c(=O)[nH]c2ccc(C3=NC(=O)[C@](C)(c4cnc(C(F)(F)F)nc4)N3)cc21)C(C)(C)C`: the bioavailability in data set [1] is 54%. Further, the results for the solubility in data set [2], in [4] and in [12] were 154 µM (≈ 70.9 µg/mL), 329 µM (≈ 151 µg/mL) and 485 µM (≈ 223 µg/mL), respectively. Moreover, the t1/2 in [3] was 1.4 h. For the same compound, the microsomal CLint at 1 µM in data set [5] is 14 µL/min/mg; in [9], 15 µL/min/mg; in [13], 15 µL/min/mg. The 50% inhibitory concentration (IC50) with Jurkat is 1.1 µM; in data set [6], greater than 250 µM; in data set [11], 0.009 µM. For the same compound, the CL in data set [7] worked out at 0.3 L/h/kg. Also, the Vdss in data set [8] is 2.6 L/kg. Also, in data set [10], the Papp A→B at 2 h is 170 nm/s.

In [1], `C[C@@H](n1c(=O)[nH]c2ccc(C3=NC(=O)[C@](C)(c4ccc(C(F)(F)F)nc4)N3)cc21)C(C)(C)C` displayed a bioavailability of 66%. The figures for the solubility in data set [2], in data set [4] and in data set [12] were 66 µM (≈ 30.3 µg/mL), 311 µM (≈ 143 µg/mL) and 500 µM (≈ 230 µg/mL), respectively. The t1/2 in data set [3] is 1.5 h. Further, the figures for the microsomal CLint at 1 µM in data set [5], in data set [9] and in [13] were 34 µL/min/mg, 14 µL/min/mg and 14 µL/min/mg, respectively. In addition, the IC50 was determined as 2.3 µM in the data set on Jurkat and 0.008 µM in [11]. The compound also displayed a CL in data set [7] of 0.3 L/h/kg. Besides, the Vdss in data set [8] worked out at 3.4 L/kg. In addition, in data set [10], the Papp A→B at 2 h turned out to be 150 nm/s.

As to `C[C@H](NC(=O)c1ccc2[nH]c(=O)n([C@H](C)C(C)(C)C)c2c1)c1cnc(C(F)(F)F)nc1`, in data set [1], the bioavailability was 28%. Besides, the solubility in data set [2] stood at 155 µM (≈ 67.5 µg/mL); in data set [4], 180 µM (≈ 78.4 µg/mL); in data set [12], 298 µM (≈ 130 µg/mL). In addition, in data set [3], the half-life was 1.9 h. Moreover, the microsomal CLint at 1 µM in data set [5] is 14 µL/min/mg; in [9], 42 µL/min/mg; in data set [13], 61 µL/min/mg. In addition, the values for the 50% inhibitory concentration (IC50) (in the data set with Jurkat; in [6]; in data set [11]) were 17.2 µM, greater than 250 µM and 0.07 µM, respectively. Besides, the apparent clearance CL/F in data set [7] was 0.8 L/h/kg. In addition, the Vdss in data set [8] is 1.8 L/kg. For the same compound, in data set [10], the Papp A→B at 2 h came out at 210 nm/s.

By bioavailability is commonly meant the share of a dose that reaches the circulation, judged against a reference dose that is usually intravenous. Lower therefore signals poor availability. Usually solubility stands for the concentration that dissolves in the medium under given conditions. Low readings indicate a poorly soluble substance, high ones a readily soluble substance. As usually defined, the IC50 is the concentration needed to halve the response being measured. In general, half-life refers to the time needed for the level to fall by half in the phase considered. As usually defined, the CL/F is the apparent clearance, not corrected for the fraction that reaches the circulation.
